System: c-Myc
Assay: c-Myc immunofluorescence assay
Assay type: cell-based, human
Conditions: A549 cells, 24 hours, anti-c-Myc immunofluorescence
In short: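 Read-out is imaged c-Myc immunofluorescence, nucleus-segmented, in A549 lung carcinoma cells exposed to compound dose series for 24 h after 48 h growth. Fixation 4% paraformaldehyde, Triton permeabilization, antibody staining at room temperature; EC50 from logistic fit of signal versus concentration.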

Row | SMILES | Myc Efficacy (−LogEC50)
1 | COc1ccc(-c2noc(N3CCC(C(=O)N[C@H]4c5ccccc5C[C@H]4O)CC3)n2)cc1 [Compound 259, N-((1S,2R)-2-hydroxy-2,3-dihydro-1H-inden-1-yl)-1-(3-(4-methoxyphenyl)-1,2,4-oxadiazol-5-yl)piperidine-4-carboxamide] | + (+ >3 and <5)
2 | COc1ccc(-c2noc(N3CCC(C(=O)NCC4CCN(Cc5cccc(C)n5)C4)CC3)n2)cc1 (stereo not shown) [Compound 387, 1-(3-(4-methoxyphenyl)-1,2,4-oxadiazol-5-yl)-N-((1-((6-methylpyridin-2-yl)methyl)pyrrolidin-3-yl)methyl)piperidine-4-carboxamide] | ++ (++ ≥5 and <6)
3 | COc1ccc(-c2noc(N3CCC(C(=O)NCC4CCN(CC5CC5C)C4)CC3)n2)cc1 (stereo not shown) [Compound 368, 1-(3-(4-methoxyphenyl)-1,2,4-oxadiazol-5-yl)-N-((1-((2-methylcyclopropyl)methyl)pyrrolidin-3-yl)methyl)piperidine-4-carboxamide] | ++ (++ ≥5 and <6)
4 | COc1ccc(-c2noc(N3CCC(C(=O)NCC4CCN(C)C4)CC3)n2)cc1 (stereo not shown) [Compound 219, 1-(3-(4-methoxyphenyl)-1,2,4-oxadiazol-5-yl)-N-((1-methylpyrrolidin-3-yl)methyl)piperidine-4-carboxamide] | − (− ≤3)
5 | COc1ccc(-c2noc(N3CCC(C(=O)NCC4CCN(CC5CCCOC5)C4)CC3)n2)cc1 (stereo not shown) [Compound 375, 1-(3-(4-methoxyphenyl)-1,2,4-oxadiazol-5-yl)-N-((1-((tetrahydro-2H-pyran-3-yl)methyl)pyrrolidin-3-yl)methyl)piperidine-4-carboxamide] | ++ (++ ≥5 and <6)
6 | Cc1ccc(CN2CCC(CNC(=O)C3CCN(c4nc(-c5cccc(C)c5)no4)CC3)C2)cc1 (stereo not shown) [Compound 186, N-((1-(4-methylbenzyl)pyrrolidin-3-yl)methyl)-1-(3-(m-tolyl)-1,2,4-oxadiazol-5-yl)piperidine-4-carboxamide] | ++ (++ ≥5 and <6)
7 | C#CCCC1(CCNC(=O)N2CCN(c3nc(-c4ccc(OC)cc4)no3)CC2)N=N1 [Compound 246, N-(2-(3-(but-3-yn-1-yl)-3H-diazirin-3-yl)ethyl)-4-(3-(4-methoxyphenyl)-1,2,4-oxadiazol-5-yl)piperazine-1-carboxamide] | + (+ >3 and <5)
8 | COc1ccc(-c2noc(N3CCC(C(=O)NCC4CCN(CC(C)C)C4)CC3)n2)cc1 (stereo not shown) [Compound 374, N-((1-isobutylpyrrolidin-3-yl)methyl)-1-(3-(4-methoxyphenyl)-1,2,4-oxadiazol-5-yl)piperidine-4-carboxamide] | + (+ >3 and <5)
9 | O=C(NCCCN1CCC(Cc2ccccn2)CC1)N1CCN(c2nc(-c3ccc(F)cc3)no2)CC1 [Compound 430, 4-(3-(4-fluorophenyl)-1,2,4-oxadiazol-5-yl)-N-(3-(4-(pyridin-2-ylmethyl)piperidin-1-yl)propyl)piperazine-1-carboxamide] | +++ (+++ ≥6)
10 | COc1ccc(-c2noc(N3CCC(C(=O)NC(C)Cc4c[nH]c5ccccc45)CC3)n2)cc1 (stereo not shown) [Compound 310, N-(1-(1H-indol-3-yl)propan-2-yl)-1-(3-(4-methoxyphenyl)-1,2,4-oxadiazol-5-yl)piperidine-4-carboxamide] | + (+ >3 and <5)
11 | Cc1ccc(CN2CC[C@@H](CNC(=O)C3CCN(c4nc(-c5ccc(Cl)cc5)no4)CC3)C2)cc1 [Compound 167, (S)-1-(3-(4-chlorophenyl)-1,2,4-oxadiazol-5-yl)-N-((1-(4-methylbenzyl)pyrrolidin-3-yl)methyl)piperidine-4-carboxamide] | +++ (+++ ≥6)
12 | COc1ccc(-c2noc(N3CCC(C(=O)NCC4CCN(Cc5ccccc5F)C4)CC3)n2)cc1 (stereo not shown) [Compound 358, N-((1-(2-fluorobenzyl)pyrrolidin-3-yl)methyl)-1-(3-(4-methoxyphenyl)-1,2,4-oxadiazol-5-yl)piperidine-4-carboxamide] | ++ (++ ≥5 and <6)
13 | COc1ccc(-c2noc(N3CCC(C(=O)NCC4CCN(Cc5ccccc5O)C4)CC3)n2)cc1 (stereo not shown) [Compound 321, N-((1-(2-hydroxybenzyl)pyrrolidin-3-yl)methyl)-1-(3-(4-methoxyphenyl)-1,2,4-oxadiazol-5-yl)piperidine-4-carboxamide] | ++ (++ ≥5 and <6)
14 | COc1ccc(-c2noc(N3CCC(C(=O)NCC4CCN(Cc5ccc(C)cc5)C4)CC3)n2)nc1 (stereo not shown) [Compound 185, 1-(3-(5-methoxypyridin-2-yl)-1,2,4-oxadiazol-5-yl)-N-((1-(4-methylbenzyl)pyrrolidin-3-yl)methyl)piperidine-4-carboxamide] | ++ (++ ≥5 and <6)
15 | COc1ccc(-c2noc(N3CCN(C(=O)NCCCN4CCC(Oc5ccccc5)CC4)CC3)n2)cc1 [Compound 245, 4-(3-(4-methoxyphenyl)-1,2,4-oxadiazol-5-yl)-N-(3-(4-phenoxypiperidin-1-yl)propyl)piperazine-1-carboxamide] | +++ (+++ ≥6)
16 | COc1ccc(-c2csc(N3CCC(C(=O)NCC4CCN(Cc5ccc(C)cc5)C4)CC3)n2)cc1 (stereo not shown) [Compound 160, 1-(4-(4-methoxyphenyl)thiazol-2-yl)-N-((1-(4-methylbenzyl)pyrrolidin-3-yl)methyl)piperidine-4-carboxamide] | ++ (++ ≥5 and <6)

Row | SMILES | Myc Efficacy (−LogEC50)
17 | O=C(NCCCN1CCC(Cc2ccccn2)CC1)C1CCN(c2nc(-c3ccc(OC(F)(F)F)cc3)no2)CC1 [Compound 435, N-(3-(4-(pyridin-2-ylmethyl)piperidin-1-yl)propyl)-1-(3-(4-(trifluoromethoxy)phenyl)-1,2,4-oxadiazol-5-yl)piperidine-4-carboxamide] | +++ (+++ ≥6)
18 | COc1ccc(-c2noc(N3CCC(C(=O)NCC4CCN(Cc5ccc(C)nc5)C4)CC3)n2)cc1 (stereo not shown) [Compound 351, 1-(3-(4-methoxyphenyl)-1,2,4-oxadiazol-5-yl)-N-((1-((6-methylpyridin-3-yl)methyl)pyrrolidin-3-yl)methyl)piperidine-4-carboxamide] | ++ (++ ≥5 and <6)
19 | COc1ccc(-c2noc(N3CCC(C(=O)NCC4(O)CCCCC4)CC3)n2)cc1 [Compound 270, N-((1-hydroxycyclohexyl)methyl)-1-(3-(4-methoxyphenyl)-1,2,4-oxadiazol-5-yl)piperidine-4-carboxamide] | + (+ >3 and <5)
20 | COc1ccc(-c2noc(N3CCC(C(=O)NCc4cncnc4)CC3)n2)cc1 [Compound 162, 1-(3-(4-methoxyphenyl)-1,2,4-oxadiazol-5-yl)-N-(pyrimidin-5-ylmethyl)piperidine-4-carboxamide] | + (+ >3 and <5)
21 | COc1ccccc1-c1noc(N2CCC(C(=O)NCC3CCN(Cc4ccc(C)cc4)C3)CC2)n1 (stereo not shown) [Compound 189, 1-(3-(2-methoxyphenyl)-1,2,4-oxadiazol-5-yl)-N-((1-(4-methylbenzyl)pyrrolidin-3-yl)methyl)piperidine-4-carboxamide] | + (+ >3 and <5)
22 | COc1ccc(-c2noc(N3CCC(C(=O)NCCCc4ccccc4)CC3)n2)cc1 [Compound 129, 1-(3-(4-methoxyphenyl)-1,2,4-oxadiazol-5-yl)-N-(3-phenylpropyl)piperidine-4-carboxamide] | + (+ >3 and <5)
23 | COc1ccc(-c2noc(N3CCC(C(=O)N[C@H]4[C@@H]5CN(C)C[C@@H]54)CC3)n2)cc1 [Compound 295, 1-(3-(4-methoxyphenyl)-1,2,4-oxadiazol-5-yl)-N-((1R,5S,6s)-3-methyl-3-azabicyclo[3.1.0]hexan-6-yl)piperidine-4-carboxamide] | + (+ >3 and <5)
24 | COc1ccc(-c2noc(N3CCC(C(=O)NCC4CCN(Cc5ccc(C)cc5)C4)CC3)n2)c(Cl)c1 (stereo not shown) [Compound 231, 1-(3-(2-chloro-4-methoxyphenyl)-1,2,4-oxadiazol-5-yl)-N-((1-(4-methylbenzyl)pyrrolidin-3-yl)methyl)piperidine-4-carboxamide] | ++ (++ ≥5 and <6)
25 | O=C(NCCCN1CCC(Cc2ccccc2)CC1)C1CCN(c2nc(-c3ccc(OC(F)(F)F)cc3)no2)CC1 [Compound 239, N-(3-(4-benzylpiperidin-1-yl)propyl)-1-(3-(4-(trifluoromethoxy)phenyl)-1,2,4-oxadiazol-5-yl)piperidine-4-carboxamide] | +++ (+++ ≥6)
26 | COc1ccc(-c2noc(N3CCC(C(=O)NCc4ccncc4)CC3)n2)cc1 [Compound 161, 1-(3-(4-methoxyphenyl)-1,2,4-oxadiazol-5-yl)-N-(pyridin-4-ylmethyl)piperidine-4-carboxamide] | + (+ >3 and <5)
27 | O=C(C1CCN(c2nc(-c3cccc(Cl)c3)no2)CC1)N1CCOCC1 [Compound 165, (1-(3-(3-chlorophenyl)-1,2,4-oxadiazol-5-yl)piperidin-4-yl)(morpholino)methanone] | + (+ >3 and <5)
28 | N#Cc1ccc(-c2noc(N3CCC(C(=O)NCCCN4CCC(Cc5ccccc5)CC4)CC3)n2)cc1 [Compound 241, N-(3-(4-benzylpiperidin-1-yl)propyl)-1-(3-(4-cyanophenyl)-1,2,4-oxadiazol-5-yl)piperidine-4-carboxamide] | +++ (+++ ≥6)
29 | COc1ccc(-c2noc(N3CCC(C(=O)Nc4ccccc4Cl)CC3)n2)cc1 [Compound 224, N-(2-chlorophenyl)-1-(3-(4-methoxyphenyl)-1,2,4-oxadiazol-5-yl)piperidine-4-carboxamide] | + (+ >3 and <5)
30 | COc1ccc(-c2noc(N3CCC(C(=O)NCC4CCN(CC5CCOC5)C4)CC3)n2)cc1 (stereo not shown) [Compound 347, 1-(3-(4-methoxyphenyl)-1,2,4-oxadiazol-5-yl)-N-((1-((tetrahydrofuran-3-yl)methyl)pyrrolidin-3-yl)methyl)piperidine-4-carboxamide] | + (+ >3 and <5)
31 | CCc1ccc(CNC(=O)C2CCN(c3nc(-c4ccc(OC)cc4)no3)CC2)cc1 [Compound 126, N-(4-ethylbenzyl)-1-(3-(4-methoxyphenyl)-1,2,4-oxadiazol-5-yl)piperidine-4-carboxamide] | + (+ >3 and <5)
